Test results reported in EP4763839A1 (Pamplona Therapeutics (Shenzhen) Co., Ltd., priority 2023, dated 2025).

Experiments:
IRAK4 [1] = molecular target: T1, IRAK4 (Homo sapiens, UniProt Q9NWZ3); assay: Degradation of IRAK4 in THP1 cells, Western blot; assay type: cell-based; set-up: Degradation of IRAK4 in THP1 by compound; host or cells: THP-1; conditions: THP-1 cells, 24 hours of incubation; for DC50: IRAK4 protein by Western blot, read-out: DC50; for Dmax: maximum degradation rate, read-out: Dmax
T1 sequence (Q9NWZ3 1-460): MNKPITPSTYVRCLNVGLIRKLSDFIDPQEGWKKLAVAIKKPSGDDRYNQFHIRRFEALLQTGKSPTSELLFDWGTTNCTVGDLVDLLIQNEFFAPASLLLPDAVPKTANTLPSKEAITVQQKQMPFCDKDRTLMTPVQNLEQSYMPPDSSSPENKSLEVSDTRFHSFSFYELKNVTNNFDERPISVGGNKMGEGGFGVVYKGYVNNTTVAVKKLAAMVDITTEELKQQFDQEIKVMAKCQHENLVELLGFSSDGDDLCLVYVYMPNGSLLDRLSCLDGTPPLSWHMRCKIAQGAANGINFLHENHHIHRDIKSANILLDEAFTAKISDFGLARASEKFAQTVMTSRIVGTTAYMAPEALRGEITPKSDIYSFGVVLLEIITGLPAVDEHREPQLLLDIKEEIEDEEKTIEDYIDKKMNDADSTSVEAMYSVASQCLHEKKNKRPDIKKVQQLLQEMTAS
Summary of the method: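 THP1 cells treated 24 h, lysed; lysates normalised by BCA, 40 μg protein per lane on 10% SDS-PAGE, anti-IRAK4 Western blot with chemiluminescence detection.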

[2] = Pharmacokinetic detection in rats after intravenous injection and oral administration; assay type: in vivo, Sprague-Dawley (SD) rats; conditions: rat; for AUC / Cmax / half-life: in vivo, oral administration
Experimental: Example 4. Pharmacokinetic detection
This study was designed to investigate the pharmacokinetic properties of the compounds in rats following intravenous injection and oral administration.
Experimental protocol: Six healthy male Sprague-Dawley (SD) rats were used for each compound, randomly divided into two groups of three animals each, with body weights ranging from 180-220 g. The rats were fasted overnight (10-14 hours) prior to administration, with free access to water, and food was restored 4 hours after administration. The compounds were formulated in a vehicle consisting of 5% DMSO + 10% solutol + 85% physiological saline (w/v). […] For A170, A177, and A180, the intravenous injection group received a dose of 1 mg/kg with an administration volume of 1 mL/kg, and the oral administration group received a dose of 5 mg/kg with an administration volume of 5 mL/kg. Blank blood samples were collected prior to administration. After administration, 0.2 mL of blood was collected from the jugular vein or other suitable methods at predetermined time points (0.083 h, 0.25 h, 0.5 h, 1 h, 2 h, 4 h, 8 h, 24 h) into EDTA-K2 anticoagulant tubes, and plasma was separated by centrifugation at 6800 g for 6 minutes. After the experiment, the concentration of the compound in plasma was quantitatively detected using liquid chromatography-tandem mass spectrometry (LCMS/MS). Pharmacokinetic parameters were calculated on the basis of the plasma concentration data at different time points using Phoenix WinNonlin version 8.3.5.

IL-6 = assay: Inhibition of R848-induced IL-6 release in human PBMCs, IL-6 ELISA; assay type: cell-based; conditions: PBMC, compound 24 hours, then R848 10 µg/mL 5 hours
Experimental: Example 3: Detection of inhibition of R848-induced IL-6 release
Cryopreserved human PBMCs (Milestone® Biotechnologies, PB010C-W) were thawed and resuspended in RPMI-1640 medium (Gibco, 22400-105) supplemented with 10% fetal bovine serum (Gibco, 10099-141), 100 U/mL penicillin, and 100 µg/mL streptomycin (Gibco, 15140122). Subsequently, 190 µL of the PBMC suspension was added to each well of 96-well clear cell culture plates (Corning, 3599) to achieve a density of 1×10^5 cells/well. The cell plates were incubated at 37°C in a 5% CO2 incubator for 30 minutes. Then, 5 µL of diluted compound solution was added to the corresponding cell-seeded wells to achieve final concentrations ranging from 0.046 to 3,000 nM. The final concentration of DMSO was 0.1%. After the compound-treated cell plate was incubated at 37°C in a 5% CO2 incubator for 24 hours, 5 µL of R848 (MCE, HY-13740) was added to achieve a final concentration of 10 µg/mL. The cell plates were incubated again at 37°C in a 5% CO2 incubator for 5 hours, then centrifuged at 1,000 rpm for 1 minute. 100 µL of the cell supernatant from each well was transferred to a new 96-well clear cell culture plate for IL-6 concentration testing.
Interleukin-6 (IL-6) ELISA assay
The IL-6 concentration in the supernatant of R848-induced human PBMCs was determined using a Human IL-6 (interleukin-6) ELISA KIT (4Bio, CHE0009-048). IL-6 standard solutions at different concentrations, ranging from 3.9 to 250 pg/mL, were prepared according to the manufacturer's instructions. 100 µL of each concentration of the IL-6 standard solution and the pre-diluted test cell supernatant samples were added separately to anti-IL-6 antibody-coated and blocked clear 96-well plates, followed by incubation at 37°C for 1.5 hours. According to the product instructions, the plates were washed, 100 µL of biotinylated antibody was added, and the plates were incubated at 37°C for 1 hour. The plates were washed, 100 µL of enzyme conjugate working solution was added. The plates were incubated at 37°C for 30 minutes, and then washed. 100 µL of chromogenic substrate was added, and the plates were incubated at 37°C for 10-20 minutes. The reaction was terminated by adding 100 µL of stop solution. After the reaction, the OD value at 450 nm was measured in absorbance mode using an Envision microplate reader (PerkinElmer). A standard curve was plotted using the corrected OD values of the various concentrations of IL-6 standard solutions. The IL-6 concentration in each cell supernatant was then determined on the basis of the corresponding concentration for the corrected OD value of the test sample on the standard curve. […] Subsequently, the IC50 value of the compound was calculated by performing non-linear curve fitting of concentration versus inhibition rate using GraphPad Prism 9.

IRAK4 [3] = molecular target: T1, IRAK4; conditions: Phase I clinical studies in hidradenitis suppurativa and atopic dermatitis; cited from earlier work
[4] = oral 10 mg/kg, intravenous 2 mg/kg
[5] = oral 5 mg/kg, intravenous 1 mg/kg

With `NC(=O)c1nn(-c2ccc(N3CCN(CC4CCN(c5ccc6c(c5)CN(C5CCC(=O)NC5=O)C6=O)CC4)CC3)cc2)cc1NC(=O)c1cccc(C(F)(F)F)n1` (stereo not shown) [Compound A169] the DC50 (IRAK4 [1]) was under 100 nM, the Dmax (IRAK4 [1]) was over 60% and the AUC ([2]; 10 mg/kg) was 3520 ng·h/mL. It also gave a Cmax ([2]; 10 mg/kg) of 408 ng/mL, a half-life ([2]; 10 mg/kg) of 5 h and an F [2, 4] of 16%. The IC50 (IL-6) was under 10 nM.
In the case of `NC(=O)c1nn(-c2ccc(N3CCN(CC4CCN(c5ccc6c(c5)CN(C5CCC(=O)NC5=O)C6=O)CC4(F)F)CC3)cc2)cc1NC(=O)c1cccc(C(F)(F)F)n1` (stereo not shown) [Compound A170], the DC50 (IRAK4 [1]) is reported as under 100 nM, the Dmax (IRAK4 [1]) is reported as over 60% and the AUC ([2]; 5 mg/kg) is reported as 2160 ng·h/mL. It also gave a Cmax ([2]; 5 mg/kg) of 285 ng/mL, a half-life ([2]; 5 mg/kg) of 7 h and an F [2, 5] of 28%. For the same molecule, the IC50 (IL-6) was under 10 nM.
Molecule `NC(=O)c1nn(-c2ccc(N3CCN(CCN4CCN(c5ccc6c(c5)C(=O)N(C5CCC(=O)NC5=O)C6=O)CC4)CC3)cc2)cc1NC(=O)c1cccc(C(F)(F)F)n1` (stereo not shown) [Compound A173] has an AUC ([2]; 10 mg/kg) of 1130 ng·h/mL, a Cmax ([2]; 10 mg/kg) of 107 ng/mL and a half-life ([2]; 10 mg/kg) of 21 h. The F [2, 4] was 18% and the IC50 (IL-6) was under 10 nM.
With `Cn1c(=O)n(C2CCC(=O)NC2=O)c2ccc(N3CCC(CN4CCN(c5ccc(-n6cc(NC(=O)c7cccc(C(F)(F)F)n7)c(C(N)=O)n6)cc5)CC4)CC3)cc21` (stereo not shown) [Compound A177] the DC50 (IRAK4 [1]) was under 100 nM, the Dmax (IRAK4 [1]) was over 60% and the AUC ([2]; 5 mg/kg) was 1230 ng·h/mL. It also gave a Cmax ([2]; 5 mg/kg) of 120 ng/mL, a half-life ([2]; 5 mg/kg) of 8 h and an F [2, 5] of 8%. The IC50 (IL-6) was under 10 nM.
In the case of `Cn1c(=O)n(C2CCC(=O)NC2=O)c2cccc(N3CCC(CN4CCN(c5ccc(-n6cc(NC(=O)c7cccc(C(F)(F)F)n7)c(C(N)=O)n6)cc5)CC4)CC3)c21` (stereo not shown) [Compound A178], the DC50 (IRAK4 [1]) is reported as under 100 nM, the Dmax (IRAK4 [1]) is reported as over 60% and the AUC ([2]; 10 mg/kg) is reported as 6560 ng·h/mL. It also gave a Cmax ([2]; 10 mg/kg) of 593 ng/mL, a half-life ([2]; 10 mg/kg) of 15 h and an F [2, 4] of 30%. The IC50 (IL-6) was under 10 nM.
With `NC(=O)c1nn(-c2ccc(N3CCN(CC4CCN(c5ccc(NC6CCC(=O)NC6=O)cc5F)CC4)CC3)cc2)cc1NC(=O)c1cccc(C(F)(F)F)n1` (stereo not shown) [Compound A195] the AUC ([2]; 10 mg/kg) was 19300 ng·h/mL, the Cmax ([2]; 10 mg/kg) was 1250 ng/mL and the half-life ([2]; 10 mg/kg) was 15 h. It also gave an F [2, 4] of 52% and an IC50 (IL-6) of under 10 nM.
`NC(=O)c1nn(-c2ccc(N3CCC(NCC4CCN(c5ccc6c(c5)C(=O)N(C5CCC(=O)NC5=O)C6=O)C4)CC3)cc2)cc1NC(=O)c1cccc(C(F)(F)F)n1` (stereo not shown) [Compound A228] showed a DC50 (IRAK4 [1]) of under 100 nM, a Dmax (IRAK4 [1]) of over 60% and an IC50 (IL-6) of under 10 nM.
In the case of `Cn1c(=O)n(C2CCC(=O)NC2=O)c2cccc(C#CCOC3CCN(CC4CCC(n5cc(NC(=O)c6cnn7ccc(N8CC9CC8CO9)nc67)c(C(F)F)n5)CC4)CC3)c21` (stereo not shown) [Control compound 1, reference compound], the AUC ([2]; 10 mg/kg) is reported as 428 ng·h/mL, the Cmax ([2]; 10 mg/kg) is reported as 98 ng/mL and the half-life ([2]; 10 mg/kg) is reported as 4 h. The F [2, 4] was 8%.
In the case of `Cn1c(=O)n(C2CCC(=O)NC2=O)c2cccc(C#CCOC3CCN(C[C@H]4CC[C@H](n5cc(NC(=O)c6cnn7ccc(N8C[C@H]9C[C@@H]8CO9)nc67)c(C(F)F)n5)CC4)CC3)c21` (stereo partly shown) [KT-474], the safety and tolerability (IRAK4 [3]) is given as “favorable safety and tolerability”.
